Values quoted from earlier work as cited in patent publication US20250268823A1, “Aqueous Quetiapine Solutions” (RELIIS LTD, priority 2022, published 2025).
Structures can show the parent of a compound that is named as a salt.

Key:
[1] = biological target: dopaminergic D1 receptors (Homo sapiens, UniProt P21728)
[2] = biological target: dopaminergic D2 receptors (Homo sapiens, UniProt P14416)
dopaminergic D2 receptors, sequence (P14416 whole entry): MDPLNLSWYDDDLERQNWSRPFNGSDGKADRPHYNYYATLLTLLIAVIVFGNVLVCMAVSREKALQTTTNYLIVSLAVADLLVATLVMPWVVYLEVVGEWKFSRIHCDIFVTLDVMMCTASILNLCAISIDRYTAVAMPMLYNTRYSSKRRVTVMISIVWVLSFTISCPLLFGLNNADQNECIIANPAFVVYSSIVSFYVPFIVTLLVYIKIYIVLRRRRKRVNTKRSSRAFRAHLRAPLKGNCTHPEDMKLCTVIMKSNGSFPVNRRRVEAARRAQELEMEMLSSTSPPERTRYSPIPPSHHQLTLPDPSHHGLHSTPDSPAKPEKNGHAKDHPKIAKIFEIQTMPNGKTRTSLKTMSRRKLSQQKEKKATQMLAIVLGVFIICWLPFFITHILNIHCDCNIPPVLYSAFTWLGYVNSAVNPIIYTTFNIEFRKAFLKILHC

dopaminergic D1 receptors, sequence (P21728 whole entry): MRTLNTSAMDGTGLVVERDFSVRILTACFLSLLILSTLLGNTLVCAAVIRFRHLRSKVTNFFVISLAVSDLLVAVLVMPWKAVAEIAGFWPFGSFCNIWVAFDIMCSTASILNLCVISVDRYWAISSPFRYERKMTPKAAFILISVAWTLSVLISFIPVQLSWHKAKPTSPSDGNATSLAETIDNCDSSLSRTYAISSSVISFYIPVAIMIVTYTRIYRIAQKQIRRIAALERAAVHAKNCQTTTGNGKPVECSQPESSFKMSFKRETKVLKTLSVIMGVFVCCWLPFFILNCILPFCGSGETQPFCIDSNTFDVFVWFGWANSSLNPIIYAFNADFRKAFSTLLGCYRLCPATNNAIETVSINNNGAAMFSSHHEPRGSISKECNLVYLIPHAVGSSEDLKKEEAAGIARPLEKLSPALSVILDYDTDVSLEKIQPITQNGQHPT

Row | Structure (SMILES) | affinity to D1 receptors [1] | affinity to D2 receptors [2] | binding at D2 receptors [2] | affinity to α1-adrenergic receptors (α1-adrenergic receptors) | affinity to α2-adrenergic receptors (α2-adrenergic receptors) | solubility in water
1 | OCCOCCN1CCN(C2=Nc3ccccc3Sc3ccccc32)CC1 [Quetiapine, 2-(2-(4-(dibenzo[b,f][1,4]thiazepin-11-yl)piperazin-1-yl)ethoxy)ethanol] | major affinity | major affinity | low binding | moderate affinity | moderate affinity | 
2 | OCCOCCN1CCN(C2=Nc3ccccc3Sc3ccccc32)CC1 [quetiapine fumarate] |  |  |  |  |  | about 0.04 mg/ml
